Laboratory results taken from patent publication US8481576B2 (Abbott GmbH & Co. KG, priority 2004, dated 2013).
Structures can show the parent of a compound that is named as a salt.

What follows are compounds tested against T1, h5-HT5A receptor (Homo sapiens, UniProt P47898) (assay: [3H]5-CT binding assay h5-HT5A). Details: membranes from HEK293 cells expressing h5-HT5A, 2.5 nM [3H]5-CT; read-out: Binding affinity 5-HT5A (Ki).
T1 construct: expressed in transfected cells; host or cells: HEK293
Outline: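 Membranes from HEK293 cells stably expressing h5-HT5A incubated with 2.5 nM [3H]5-CT and compound in 100 mM Tris-HCl pH 7.7, 1 mM EDTA, 75 min at 30° C. Nonspecific binding with 10 μM methiothepine; filtration and scintillation counting give Ki or IC50.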

T1 sequence (P47898 whole entry): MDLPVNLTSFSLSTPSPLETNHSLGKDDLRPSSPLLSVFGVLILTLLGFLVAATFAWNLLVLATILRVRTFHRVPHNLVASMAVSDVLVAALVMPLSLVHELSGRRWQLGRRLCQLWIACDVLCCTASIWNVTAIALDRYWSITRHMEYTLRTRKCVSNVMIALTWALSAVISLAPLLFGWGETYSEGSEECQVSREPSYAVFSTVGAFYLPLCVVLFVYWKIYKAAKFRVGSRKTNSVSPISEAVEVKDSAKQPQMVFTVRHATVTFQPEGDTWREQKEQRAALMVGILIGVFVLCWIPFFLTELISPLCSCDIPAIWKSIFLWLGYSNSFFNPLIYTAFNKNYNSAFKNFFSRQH

| Compound | Ki [µM] |
| --- | --- |
| N=C(NCc1cccc(Cl)c1)Nc1nccs1 [Example 13, N-(3-chlorobenzyl)-N′-1,3-thiazole-2-ylguanidine hydrochloride] | > 0.5 |
| COc1ccccc1CNC(=N)Nc1nc(-c2ccc(Cl)cc2)cs1 [Example 35, N-[4-(4-chlorophenyl)-1,3-thiazole-2-yl]-N′-(2-methoxybenzyl)guanidine] | > 0.5 |
| COc1cccc(OC)c1CNC(=N)Nc1nc(-c2ccc(C(F)(F)F)cc2)cs1 [Example 107, N-(2,6-dimethoxybenzyl)-N′-{4-[4-(trifluoromethyl)phenyl]-1,3-thiazole-2-yl}guanidine] | 0.05 to 0.5 |
| COc1cccc(OC)c1CNC(=N)Nc1nnc(-c2ccccc2)s1 [Example 176, N-(2,6-dimethoxybenzyl)-N′-(5-phenyl-1,3,4-thiadiazole-2-yl)guanidine] | 0.05 to 0.5 |
| COc1cccc(F)c1CNC(=N)Nc1nc(-c2ccc(F)cc2)cs1 [Example 141, N-(2-fluoro-6-methoxybenzyl)-N′-[4-(4-fluorophenyl)-1,3-thiazole-2-yl]guanidine] | 0.05 to 0.5 |
| Cc1ccccc1CNC(=N)Nc1nccs1 [Example 12, N-(2-methylbenzyl)-N′-1,3-thiazole-2-ylguandine] | > 0.5 |
| COc1cccc(Cl)c1CNC(=N)Nc1nc(-c2ccc(Cl)cn2)cs1 [Example 134, N-(2-chloro-6-methoxybenzyl)-N′-[4-(5-chloropyridine-2-yl)-1,3-thiazole-2-yl]guanidine] | 0.05 to 0.5 |
| COc1cccc(OC)c1CNC(=N)Nc1nc(N2CCOCC2)cs1 [Example 167, 4-[2-{[[(2,6-dimethoxybenzyl)amino](imino)methyl]amino}-1,3-thiazole-4(5H)-yliden]morpholine-4-ium chloride] | 0.05 to 0.5 |
| COc1ccccc1CNC(=N)Nc1nc(-c2ccccc2)cs1 [Example 31, N-(2-methoxybenzyl)-N′-(4-phenyl-1,3-thiazole-2-yl)guanidine] | 0.05 to 0.5 |
| COc1ccc(C(F)(F)F)cc1CNC(=N)Nc1nc(-c2ccccc2)cs1 [Example 221, N-[2-methoxy-5-(trifluoromethyl)benzyl]-N′-(4-phenyl-1,3-thiazole-2-yl)guanidine] | > 0.5 |
| COc1ccccc1CNC(=N)Nc1nc(-c2ccc(F)cc2)c[nH]1 [Example 186, N-[4-(4-fluorophenyl)-1H-imidazole-2-yl]-N′-(2-methoxybenzyl)guanidine] | < 0.05 |
| COc1ccccc1CNC(=N)Nc1nnc(C)[nH]1 [Example 185, N-(2-methoxybenzyl)-N′-(5-methyl-4H-1,2,4-triazole-3-yl)guanidine acetate] | > 0.5 |
| COc1cccc(OC)c1CNC(=N)Nc1cc(-c2ccc(Cl)cc2)[nH]n1 [Example 212, N-[5-(4-chlorophenyl)-1H-pyrazole-3-yl]-N′-(2,6-dimethoxybenzyl)guanidine] | < 0.05 |
| COc1ccccc1CNC(=N)Nc1cc(C(C)(C)C)[nH]n1 [Example 200, N-(5-tert-butyl-1H-pyrazole-3-yl)-N′-(2-methoxy-benzyl)-guanidine] | 0.05 to 0.5 |
| COc1cccc(OC)c1CNC(=N)Nc1nc(C(=O)NC(C)C)cs1 [Example 196, 2-{[[(2,6-dimethoxybenzyl)amino](imino)methyl]amino}-N-isopropyl-1,3-thiazole-4-carboxamide] | < 0.05 |
| COc1cccc(OC)c1CNC(=N)Nc1nc(-c2ccc(OC(F)F)cc2)cs1 [Example 109, N-{4-[4-(difluoromethoxy)phenyl]-1,3-thiazole-2-yl}-N′-(2,6-dimethoxybenzyl)guanidine hydrobromide] | 0.05 to 0.5 |
| COc1cccc(OC)c1CNC(=N)Nc1nc(-c2ccco2)cs1 [Example 117, N-(2,6-dimethoxybenzyl)-N′-[4-(2-furyl)-1,3-thiazole-2-yl]guanidine hydrobromide] | < 0.05 |
| N-[4-(2-{[[(2,6-dimethoxybenzyl)amino](imino)methyl]amino}-1,3-thiazole-4-yl)phenyl]acetamide acetate [Example 79] | < 0.05 |
| COc1ccccc1CNC(=N)Nc1ccn(C)n1 [Example 214, N-(2-methoxybenzyl)-N′-(1-methyl-1H-pyrazole-3-yl)guanidine] | < 0.05 |
| COc1ccccc1CNC(=N)Nc1n[nH]cc1-c1ccccc1 [Example 217, N-(2-methoxybenzyl)-N′-(4-phenyl-1H-pyrazole-3-yl)guanidine] | > 0.5 |
| COc1cccc(OC)c1CNC(=N)Nc1nc(CN(C)C)cs1 [Example 158, N-(2,6-Dimethoxybenzyl)-N′-{4-[(dimethylamino)methyl]-1,3-thiazole-2-yl}guanidine acetate] | < 0.05 |
| CCOc1ccccc1CNC(=N)Nc1nccs1 [Example 8, N-(2-ethoxybenzyl)-N′-1,3-thiazole-2-ylguanidine hydrochloride] | < 0.05 |
| COc1cccc(OC)c1CNC(=N)Nc1nc(-c2ccccc2Cl)cs1 [Example 44, N-[4-(2-chlorophenyl)-1,3-thiazole-2-yl]-N′-(2,6-dimethoxybenzyl)guanidine] | < 0.05 |
| COc1cccc(OC)c1CNC(=N)Nc1cc(C(C)(C)C)[nH]n1 [Example 204, N-(5-tert-butyl-1H-pyrazole-3-yl)-N′-(2,6-dimethoxybenzyl)guanidine] | < 0.05 |
| COc1cccc(OC)c1CNC(=N)Nc1nc(C(c2ccccc2)c2ccccc2)cs1 [Example 76, N-(2,6-dimethoxybenzyl)-N′-[4-(diphenylmethyl)-1,3-thiazole-2-yl]guanidine hydrobromide] | < 0.05 |
| COc1cccc(F)c1CNC(=N)Nc1nccs1 [Example 9, N-(2-fluoro-6-methoxybenzyl)-N′-1,3-thiazole-2-ylguanidine] | < 0.05 |
| COc1ccccc1CNC(=N)Nc1n[nH]c2ccccc12 [Example 179, N-1H-indazole-3-yl-N′-(2-methoxybenzyl)guanidine acetate] | < 0.05 |
| CCNC(=Nc1nccs1)NCc1ccccc1OC [Example 26, N-ethyl-N′-(2-methoxybenzyl)-N″-1,3-thiazole-2-ylguanidine (2E)-But-2-endioate] | > 0.5 |

The next lines start with the values.

| Ki [µM] | Compound |
| --- | --- |
| < 0.05 | COc1cccc(OC)c1CNC(=N)Nc1nc(-c2c(Cl)cccc2Cl)cs1 [Example 119, N-[4-(2,6-dichlorophenyl)-1,3-thiazole-2-yl]-N′-(2,6-dimethoxybenzyl)guanidine] |
| < 0.05 | COc1cccc(OC)c1CNC(=N)Nc1cc[nH]n1 [Example 203, N-(2,6-dimethoxybenzyl)-N′-1H-pyrazole-3-ylguanidine] |
| < 0.05 | COc1cccc(OC)c1CNC(=N)Nc1nc(-c2ccc(N3CCOCC3)cc2)cs1 [Example 65, N-(2,6-dimethoxybenzyl)-N′-[4-(4-morpholine-4-ylphenyl)-1,3-thiazole-2-yl]guanidine hydrobromide] |
| < 0.05 | COc1cccc(F)c1CNC(=N)Nc1cc(C(C)(C)C)[nH]n1 [Example 210, N-(5-tert-butyl-1H-pyrazole-3-yl)-N′-(2-fluoro-6-methoxybenzyl)guanidine] |
| < 0.05 | COc1cccc(F)c1CNC(=N)Nc1nc(-c2ccccc2)cs1 [Example 59, N-(2-fluoro-6-methoxybenzyl)-N′-(4-phenyl-1,3-thiazole-2-yl)guanidine] |
| < 0.05 | COc1ccccc1CNC(=N)Nc1cc(-c2ccc(C)cc2)[nH]n1 [Example 206, N-(2-methoxybenzyl)-N′-[5-(4-methylphenyl)-1H-pyrazole-3-yl]guanidine] |
| < 0.05 | COc1ccccc1CNC(=N)Nc1ccn(-c2ccccc2)n1 [Example 220, N-(2-methoxybenzyl)-N′-(1-phenyl-1H-pyrazole-3-yl)guanidine] |
| < 0.05 | COc1cccc(OC)c1CNC(=N)Nc1nc(-c2ccc(F)cc2)c[nH]1 [Example 191, N-(2,6-dimethoxybenzyl)-N′-[4-(4-fluorophenyl)-1H-imidazole-2-yl]guanidine acetate] |
| < 0.05 | COc1cccc(OC)c1CNC(=N)Nc1nc(-c2ccc(F)cc2OCCN2CCOCC2)cs1 [Example 153, N-(2,6-dimethoxybenzyl)-N′-{4-[4-fluoro-2-(2-morpholine-4-ylethoxy)phenyl]-1,3-thiazole-2-yl}guanidine] |
| < 0.05 | COc1cccc(OC)c1CNC(=N)Nc1nc(-c2ncc(Cl)cc2Cl)cs1 [Example 126, N-[4-(3,5-dichloropyridine-2-yl)-1,3-thiazole-2-yl]-N′-(2,6-dimethoxybenzyl)guanidine] |
| < 0.05 | COc1cccc(Cl)c1CNC(=N)Nc1nc(-c2ncccn2)cs1 [Example 135, N-(2-chloro-6-methoxybenzyl)-N′-(4-pyrimidine-2-yl-1,3-thiazole-2-yl)guanidine] |
| < 0.05 | COC(=O)c1sc(NC(=N)NCc2c(OC)cccc2OC)nc1-c1ccc(F)cc1 [Example 160, Methyl-2-{[[(2,6-dimethoxybenzyl)amino](imino)methyl]amino}-4-(4-fluorophenyl)-1,3-thiazole-5-carboxylate] |
| < 0.05 | COc1cccc(OC)c1CNC(=N)Nc1nc(-c2ccccc2)cs1 [Example 2, N-(2,6-dimethoxybenzyl)-N′-(4-phenyl-1,3-thiazole-2-yl)guanidine] |
| < 0.05 | COc1ccc(-c2csc(NC(=N)NCc3c(OC)cccc3OC)n2)cc1 [Example 58, N-(2,6-dimethoxybenzyl)-N′-[4-(4-methoxyphenyl)-1,3-thiazole-2-yl]guanidine] |
| < 0.05 | COc1cccc(OC)c1CNC(=N)Nc1nc(-c2ccc(Cl)s2)cs1 [Example 77, N-[4-(5-chloro-2-thienyl)-1,3-thiazole-2-yl]-N′-(2,6-dimethoxybenzyl)guanidine hydrobromide] |
| < 0.05 | COc1cccc(OC)c1CNC(=N)Nc1nc(-c2ncccc2Cl)cs1 [Example 164, N-[4-(3-chloropyridine-2-yl)-1,3-thiazole-2-yl]-N′-(2,6-dimethoxybenzyl)guanidine] |
| < 0.05 | COc1cccc(OC)c1CNC(=N)Nc1nc(-c2cccc(F)c2)cs1 [Example 73, N-(2,6-dimethoxybenzyl)-N′-[4-(3-fluorophenyl)-1,3-thiazole-2-yl]guanidine hydrobromide] |
